The subject of data set [1] is Staph. aureus ATCC700787 (MRSA/VISA). Put plainly: MIC/FIC/FICI determination, MHB broth microdilution (CLSI M07-A9). It counts as cell-based. As to conditions: Staphylococcus aureus. Background: Dilution methods test growth across graded concentrations, often in twofold steps.
For data set [2], the system named is Staph. aureus ATCC29213 (semi-resistant). Put plainly: MIC determination, MHB broth microdilution (CLSI M07-A9). Format: cell-based. As to conditions: Staphylococcus aureus.
The test system of data set [3] is Enterococcus faecium ATCC700221 (VRE). In words: MIC/FIC/FICI determination, MHB broth microdilution (CLSI M07-A9). As to conditions: single compound. It counts as cell-based.
The test system of data set [4] is VRSA (vancomycin-resistant Staphylococcus aureus). As to conditions: cited from earlier work.
The conditions of data set [5]: rat, in vivo, topical or ocular; cited from earlier work.
For data set [6] the following is noted: rat, in vivo; cited from earlier work.

Values after ≈ are worked out from the molar mass of the structure shown. Where two headings read alike, the source gives them in different places.

As a reminder, the MIC is the least concentration at which growth counts as inhibited. Consider `CCCCCCCCCC(=O)N[C@@H](Cc1c[nH]c2ccccc12)C(=O)N[C@H](CC(N)=O)C(=O)N[C@@H](CC(=O)O)C(=O)N[C@@H]1C(=O)NCC(=O)N[C@@H](CCCN)C(=O)N[C@@H](CC(=O)O)C(=O)N[C@H](C)C(=O)N[C@@H](CC(=O)O)C(=O)NCC(=O)N[C@H](CO)C(=O)N[C@@H]([C@H](C)CC(=O)O)C(=O)N[C@@H](CC(=O)c2ccccc2N)C(=O)O[C@@H]1C` [daptomycin], for which the MIC in data set [1] (single compound, 24 hours exposure, read-out: MIC) is 4 µg/mL; in data set [1] (single compound, 48 hours exposure, read-out: MIC), 8 µg/mL; in data set [2] (ATCC29213, single compound, 24 hours exposure, read-out: MIC), 2 µg/mL (≈ 1.23 µM); in data set [2] (ATCC29213, single compound, 48 hours exposure, read-out: MIC) it was 2 µg/mL (≈ 1.23 µM); in data set [3] (24 hours exposure), 8 µg/mL; in data set [3] (48 hours exposure), 8 µg/mL.
Turning to `CN[C@H](CC(C)C)C(=O)N[C@H]1C(=O)N[C@@H](CC(N)=O)C(=O)N[C@H]2C(=O)N[C@H]3C(=O)N[C@H](C(=O)N[C@H](C(=O)O)c4cc(O)cc(O)c4-c4cc3ccc4O)[C@H](O)c3ccc(c(Cl)c3)Oc3cc2cc(c3O[C@@H]2O[C@H](CO)[C@@H](O)[C@H](O)[C@H]2O[C@H]2C[C@](C)(N)[C@H](O)[C@H](C)O2)Oc2ccc(cc2Cl)[C@H]1O` [vancomycin], the MIC is 8 µg/mL in data set [1] (24 h); 8 µg/mL in data set [1] (48 h); 2 µg/mL (≈ 1.38 µM) in data set [2] (ATCC29213, 24 h); 2 µg/mL (≈ 1.38 µM) in data set [2] (ATCC29213, 48 h). In addition, the MIC for vancomycin in data set [4] was ≥ 16 µg/mL.
Regarding rhamnolipids, the “acute dermal toxicity LD50” value in data set [5] was > 5000 mg/kg. For the same compound, the “acute oral toxicity LD50” value in data set [6] is listed as > 5000 mg/kg.

Source of the values: patent publication US20140294925A1 (priority 2013, published 2014).
